Measurements published in patent US6699686B1, “Modified nuclear glucocorticoid receptor, fusion protein, and DNA fragments coding for said receptor and said fusion protein” (Association pour le Development de la Recherche en …, priority 1996, dated 2004).

Target: T1, wild-type hGR (Homo sapiens, UniProt P04150)
T1 construct: expressed in transfected cells
T1 sequence (P04150 1-777): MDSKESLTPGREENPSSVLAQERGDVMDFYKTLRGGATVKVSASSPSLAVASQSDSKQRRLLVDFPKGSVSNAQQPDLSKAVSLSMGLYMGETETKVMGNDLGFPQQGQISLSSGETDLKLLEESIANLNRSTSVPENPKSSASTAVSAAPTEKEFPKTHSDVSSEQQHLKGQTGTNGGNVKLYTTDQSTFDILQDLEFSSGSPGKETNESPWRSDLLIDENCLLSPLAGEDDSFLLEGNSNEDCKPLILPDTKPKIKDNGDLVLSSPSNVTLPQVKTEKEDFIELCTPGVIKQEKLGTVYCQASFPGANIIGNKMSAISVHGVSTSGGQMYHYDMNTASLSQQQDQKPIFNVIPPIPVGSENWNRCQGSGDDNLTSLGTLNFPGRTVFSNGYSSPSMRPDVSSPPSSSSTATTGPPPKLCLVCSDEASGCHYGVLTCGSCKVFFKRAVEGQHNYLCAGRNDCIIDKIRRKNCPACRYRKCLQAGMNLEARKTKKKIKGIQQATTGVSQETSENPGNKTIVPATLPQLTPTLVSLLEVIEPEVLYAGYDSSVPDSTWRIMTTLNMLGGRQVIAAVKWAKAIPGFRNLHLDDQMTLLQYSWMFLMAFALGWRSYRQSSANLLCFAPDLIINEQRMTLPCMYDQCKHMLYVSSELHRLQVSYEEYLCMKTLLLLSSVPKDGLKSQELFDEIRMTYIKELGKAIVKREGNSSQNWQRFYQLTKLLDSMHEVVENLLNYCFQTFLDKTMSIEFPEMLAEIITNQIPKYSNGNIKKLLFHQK
Assay: Transcriptional activation of pTAT-tk-Luc luciferase reporter in transiently transfected CV-1 cells
Format: cell-based
Set-up: Luciferase activity % Wild type: concentration or dose not given beside the values
Conditions: for Luciferase activity % Wild type: 24 h ligand, mean of three independent assays; for EC50: ligand concentration giving 50% of maximum transcriptional response
Method: The receptors were transiently expressed in GR-free CV-1 cells, conjointly with a luciferase reporter gene under the control of the tyrosine aminotransferase promoter (pTAT-tk-Luc).
After transfection, the cells were incubated for 24 hours with increasing concentrations of Dex, and they were then subjected to an assay of the β-galactosidase and luciferase activities, as described in “Materials and Methods”. The luciferase activity was normalized with the β-galactosidase activity, and the value obtained in the absence of ligand was subtracted for each point. The results were expressed as a percentage of the maximum luciferase activity obtained for each receptor. Each point is the mean±standard deviation of the mean of four separate determinations carried out in duplicate. […] The [^3H] steroid attached was measured after treatment with dextran-coated charcoal. The results presented are those for a single assay carried out in duplicate and representative of three separate assays.
Co-transfections were carried out and dose-response curves were constructed as described in FIG. 2. […] The assays of luciferase and β-galactosidase activity were carried out as described in “Materials and Methods”. The mean values of three independent assays are given in this table. nm=not measurable.
The CV-1 and Cos-7 cells were cultured in Dulbeco's modified Eagle's medium (DMEM) containing 10% (v/v) of fetal calf serum (FCS) (Gibco, Grand Island, N.Y.), in a humidified atmosphere containing 5% CO2. The HeLa cells were cultured under the same conditions. Transient transfections were carried out in 6-well multiplates according to the calcium phosphate procedure already described (42). A reference recombinant plasmid, pCMV-βgal, expressing bacterial β-galactosidase, was transfected conjointly with the receptor expression vector and the corresponding reporter gene so as to correct possible variations in he transfection efficiency. The precipitate was removed by washing after 24 hours, and the cells were kept in DMEX without FCS but containing hormone. After another 24 hours, the cells were rinsed and lysed for 15 minutes with 0.3 ml of lysis buffer [25 mM Tris.phosphate, pH 7.8, 8 mM […], 1% Triton X100, 10% glycerol (48)]. The corresponding luciferase activity as determined on an aliquot fraction (0.1 ml), by evaluation of the luminescence peak (for an integration time of 15 seconds), after injection of 0.1 ml of 1 mM luciferin in an LKB luminometer. The β-galactosidase was determined by the method modified by Bocquel et al. (49), for controlling the efficiency of each transfection.
The reporter gene pTAT-tk-Luc was provided by D. Gagne and was constructed as follows: an intermediate plasmid pTAT was first generated by insertion of the 966 bp EcoRI-BamHI segment obtained from pKT531 [offered freely by T. Grande (50)] into the corresponding sites of the vector pUC19 (Pharmacia). The fragment containing the sequence coding for the firefly luciferase and the thymidine kinase (tk) minimal promoter obtained from the Herpes simplex virus was isolated in the form of a BamHI fragment from pvit-tk-Luc (51) and inserted, downstream of the TAT promoter, into the corresponding site of pTAT. The reporter plasmid pGRE-tk-Luc was constructed by ligation of the fragment of HindIII-BglII digestion of pGRE-tk-CAT (52), which contains a synthetic GRE (AGAACAcagTGTTCT) upstream of the tk minimal promoter, into the HindIII-BglII sites of pLuc (53). The reporter gene p(17M)5-βGlob-Luc has been previously described (54). The reporter plasmid p(17M)5-tata-Luc was constructed from the plasmid p(17M)5-tata-CAT (55) by digestion with XhoI-BamHI and isolation of the fragment containing (17M5)-tata. This fragment was then inserted into the vector pGL2 (Promega) digested with the same restriction enzymes.

Structure (SMILES) | stimulation of the luciferase reporter with the wild-type GR | Luciferase activity % Wild type [%] | EC50 [nM]
C[C@]12CCC(=O)C=C1CC[C@@H]1[C@@H]2[C@@H](O)C[C@]2(C=O)[C@@H](C(=O)CO)CC[C@@H]12 [Aldosterone, aldosterone] | as effective as Dex | 90 | 50
C[C@]12C[C@H](O)[C@H]3[C@@H](CCC4=CC(=O)CC[C@@]43C)[C@@H]1CC[C@@H]2C(=O)CO [Corticosterone, corticosterone] | as effective as Dex | 100 | 70
C[C@]12CCC(=O)C=C1CC[C@@H]1[C@@H]2[C@@H](O)C[C@@]2(C)[C@H]1CC[C@]2(O)C(=O)CO [Cortisol, cortisol] | as effective as Dex | 110 | 
C[C@@H]1C[C@H]2[C@@H]3CCC4=CC(=O)C=C[C@]4(C)[C@@]3(F)[C@@H](O)C[C@]2(C)[C@@]1(O)C(=O)CO [Dexamethasone, dexamethasone] |  | 100 | 
